Measured values published in US10730863B2, “Bridged bicyclic compounds as farnesoid X receptor modulators” (BRISTOL-MYERS SQUIBB COMPANY, priority 2017, dated 2020).

Target: FXR (Homo sapiens (Human), UniProt Q96RI1)
Assay: FXR EC50 (FXR agonist activity reported with each example)
Assay type: cell-based

Sequence of FXR (Q96RI1 262-486): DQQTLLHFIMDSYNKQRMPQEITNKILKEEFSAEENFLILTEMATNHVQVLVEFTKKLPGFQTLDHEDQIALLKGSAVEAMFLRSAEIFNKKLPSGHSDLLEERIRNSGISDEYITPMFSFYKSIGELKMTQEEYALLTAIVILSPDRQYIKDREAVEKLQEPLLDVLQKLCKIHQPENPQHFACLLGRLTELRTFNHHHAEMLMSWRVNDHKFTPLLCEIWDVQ

Row | Compound | EC50 [nM]
1 | Cc1cc(OCC23CCC(OCc4c(-c5c(Cl)cncc5Cl)noc4C4CC4)(CC2)CC3)cc(C(=O)O)c1 [Example 322] | 7
2 | COc1cc(OCC23CCC(OCc4c(-c5c(Cl)cncc5Cl)noc4C4CC4)(CC2)CC3)nc(C(=O)O)c1 [Example 323] | 74
3 | O=C(O)c1cc(C2CC2)c2cc(OCC34CCC(OCc5c(-c6c(Cl)cncc6Cl)noc5C5CC5)(CC3)CC4)ccc2n1 [Example 324, 4-cyclopropyl-6-((4-((5-cyclopropyl-3-(3,5-dichloropyridin-4-yl)isoxazol-4-yl)methoxy)bicyclo[2.2.2]octan-1-yl)methoxy)quinoline-2-carboxylic acid] | 22
4 | Cc1cc(C(=O)O)nc2ccc(OCC34CCC(OCc5c(-c6c(Cl)cncc6Cl)noc5C5CC5)(CC3)CC4)cc12 [Example 325] | 52
5 | CC(C)Oc1cc(OCC23CCC(OCc4c(-c5c(Cl)cncc5Cl)noc4C4CC4)(CC2)CC3)cc(C(=O)O)c1 [Example 326] | 17
6 | O=C(O)c1cc(O)c2cc(OCC34CCC(OCc5c(-c6c(Cl)cncc6Cl)noc5C5CC5)(CC3)CC4)ccc2n1 [Example 327, 6-((4-((5-cyclopropyl-3-(3,5-dichloropyridin-4-yl)isoxazol-4-yl)methoxy)bicyclo[2.2.2]octan-1-yl)methoxy)-4-hydroxyquinoline-2-carboxylic acid] | 170
7 | CC(C)Oc1cc(C(=O)O)nc2ccc(OCC34CCC(OCc5c(-c6c(Cl)cncc6Cl)noc5C5CC5)(CC3)CC4)cc12 [Example 328, 6-((4-((5-cyclopropyl-3-(3,5-dichloropyridin-4-yl)isoxazol-4-yl)methoxy)bicyclo[2.2.2]octan-1-yl)methoxy)-4-isopropoxyquinoline-2-carboxylic acid] | 15
8 | COC1CN(c2cc(C(=O)O)nc3ccc(OCC45CCC(OCc6c(-c7c(Cl)cncc7Cl)noc6C6CC6)(CC4)CC5)cc23)C1 [Example 329, 6-((4-((5-cyclopropyl-3-(3,5-dichloropyridin-4-yl)isoxazol-4-yl)methoxy)bicyclo[2.2.2]octan-1-yl)methoxy)-4-(3-methoxyazetidin-1-yl)quinoline-2-carboxylic acid] | 1400
9 | CN(C)c1cc(C(=O)O)nc2ccc(OCC34CCC(OCc5c(-c6c(Cl)cncc6Cl)noc5C5CC5)(CC3)CC4)cc12 [Example 330] | 1500
10 | O=C(O)c1cc(OC2CC2)c2cc(OCC34CCC(OCc5c(-c6c(Cl)cncc6Cl)noc5C5CC5)(CC3)CC4)ccc2n1 [Example 331, 4-cyclopropoxy-6-((4-((5-cyclopropyl-3-(3,5-dichloropyridin-4-yl)isoxazol-4-yl)methoxy)bicyclo[2.2.2]octan-1-yl)methoxy)quinoline-2-carboxylic acid] | 23
11 | CS(=O)(=O)c1cc(C(=O)O)nc2ccc(OCC34CCC(OCc5c(-c6c(Cl)cncc6Cl)noc5C5CC5)(CC3)CC4)cc12 [Example 332, 6-((4-((5-cyclopropyl-3-(3,5-dichloropyridin-4-yl)isoxazol-4-yl)methoxy)bicyclo[2.2.2]octan-1-yl)methoxy)-4-(methylsulfonyl)quinoline-2-carboxylic acid] | 830
12 | CC(C)Oc1cc(OCC23CCC(OCc4c(-c5c(Cl)cncc5Cl)noc4C4CC4)(CC2)CC3)cnc1C(=O)O [Example 334, 5-((4-((5-cyclopropyl-3-(3,5-dichloropyridin-4-yl)isoxazol-4-yl)methoxy)bicyclo[2.2.2]octan-1-yl)methoxy)-3-isopropoxypicolinic acid] | 21
13 | COc1cc(OCC23CCC(OCc4c(-c5c(Cl)cncc5Cl)noc4C4CC4)(CC2)CC3)cnc1C(=O)O [Example 335, 5-((4-((5-cyclopropyl-3-(3,5-dichloropyridin-4-yl)isoxazol-4-yl)methoxy)bicyclo[2.2.2]octan-1-yl)methoxy)-3-methoxypicolinic acid] | 170
14 | COCCOc1cc(OCC23CCC(OCc4c(-c5c(Cl)cncc5Cl)noc4C4CC4)(CC2)CC3)cnc1C(=O)O [Example 336] | 160
15 | O=C(O)c1ncc(OCC23CCC(OCc4c(-c5c(Cl)cncc5Cl)noc4C4CC4)(CC2)CC3)cc1OCC1CC1 [Example 337] | 27
16 | CCCc1cc(C(=O)O)nc2ccc(OCC34CCC(OCc5c(-c6c(Cl)cncc6Cl)noc5C5CC5)(CC3)CC4)cc12 [Example 338, 6-((4-((5-cyclopropyl-3-(3,5-dichloropyridin-4-yl)isoxazol-4-yl)methoxy)bicyclo[2.2.2]octan-1-yl)methoxy)-4-propylquinoline-2-carboxylic acid] | 17
17 | O=C(O)c1ncc(OCC23CCC(OCc4c(-c5c(Cl)cncc5Cl)noc4C4CC4)(CC2)CC3)cc1OC1CCC1 [Example 339] | 28
18 | O=C(O)c1ncc(OCC23CCC(OCc4c(-c5c(Cl)cncc5Cl)noc4C4CC4)(CC2)CC3)cc1OC1CC1 [Example 340] | 46
19 | CC(Oc1ccc(OCC23CCC(OCc4c(-c5c(Cl)cncc5Cl)noc4C4CC4)(CC2)CC3)cc1)C(=O)O (centres unmarked) [Example 341] | 1500
20 | COc1ccc(C(=O)O)c2ccc(OCC34CCC(OCc5c(-c6c(Cl)cncc6Cl)noc5C5CC5)(CC3)CC4)nc12 [Example 342] | 33
21 | O=C(O)c1cccc2nc(OCC34CCC(OCc5c(-c6c(Cl)cncc6Cl)noc5C5CC5)(CC3)CC4)ccc12 [Example 343] | 75

Row | Compound | EC50 [nM]
22 | O=C(O)c1cc(OC2CCC2)c2cc(OCC34CCC(OCc5c(-c6c(Cl)cncc6Cl)noc5C5CC5)(CC3)CC4)ccc2n1 [Example 344] | 17
23 | CCOc1cc(C(=O)O)nc2ccc(OCC34CCC(OCc5c(-c6c(Cl)cncc6Cl)noc5C5CC5)(CC3)CC4)cc12 [Example 345] | 14
24 | O=C(O)c1cc(OCC2CC2)c2cc(OCC34CCC(OCc5c(-c6c(Cl)cncc6Cl)noc5C5CC5)(CC3)CC4)ccc2n1 [Example 346] | 18
25 | CCc1cc(C(=O)O)nc2ccc(OCC34CCC(OCc5c(-c6c(Cl)cncc6Cl)noc5C5CC5)(CC3)CC4)cc12 [Example 347] | 24
26 | Cc1cc(OCC23CCC(OCc4c(-c5c(Cl)cncc5Cl)noc4C4CC4)(CC2)CC3)cnc1C(=O)O [Example 348, 5-((4-((5-cyclopropyl-3-(3,5-dichloropyridin-4-yl)isoxazol-4-yl)methoxy)bicyclo[2.2.2]octan-1-yl)methoxy)-3-methylpicolinic acid] | 59
27 | O=C(O)c1ccc(OC2CCC2)c2nc(OCC34CCC(OCc5c(-c6c(Cl)cncc6Cl)noc5C5CC5)(CC3)CC4)ccc12 [Example 349, 8-cyclobutoxy-2-((4-((5-cyclopropyl-3-(3,5-dichloropyridin-4-yl)isoxazol-4-yl)methoxy)bicyclo[2.2.2]octan-1-yl)methoxy)quinoline-5-carboxylic acid] | 130
28 | COc1cncc(Cl)c1-c1noc(C2CC2)c1COC12CCC(COc3cc(OC)c4cc(C(=O)O)ccc4n3)(CC1)CC2 [Example 350, 2-((4-((3-(3-chloro-5-methoxypyridin-4-yl)-5-cyclopropylisoxazol-4-yl)methoxy)bicyclo[2.2.2]octan-1-yl)methoxy)-4-methoxyquinoline-6-carboxylic acid] | 890
29 | COc1cncc(Cl)c1-c1noc(C2CC2)c1COC12CCC(COc3ccc4cc(C(=O)O)cc(C5CC5)c4n3)(CC1)CC2 [Example 351, 2-((4-((3-(3-chloro-5-methoxypyridin-4-yl)-5-cyclopropylisoxazol-4-yl)methoxy)bicyclo[2.2.2]octan-1-yl)methoxy)-8-cyclopropylquinoline-6-carboxylic acid] | 23
30 | O=C(O)c1cccc2cc(OCC34CCC(OCc5c(-c6c(Cl)cncc6Cl)noc5C5CC5)(CC3)CC4)cnc12 [Example 352, 3-((4-((5-cyclopropyl-3-(3,5-dichloropyridin-4-yl)isoxazol-4-yl)methoxy)bicyclo[2.2.2]octan-1-yl)methoxy)quinoline-8-carboxylic acid] | 55
31 | O=C(O)c1cc(OCC2CCC2)c2cc(OCC34CCC(OCc5c(-c6c(Cl)cncc6Cl)noc5C5CC5)(CC3)CC4)ccc2n1 [Example 353] | 11
32 | O=C(O)c1cc(OC(CO)CCl)c2cc(OCC34CCC(OCc5c(-c6c(Cl)cncc6Cl)noc5C5CC5)(CC3)CC4)ccc2n1 (centres unmarked) [Example 354, 4-((1-chloro-3-hydroxypropan-2-yl)oxy)-6-((4-((5-cyclopropyl-3-(3,5-dichloropyridin-4-yl)isoxazol-4-yl)methoxy)bicyclo[2.2.2]octan-1-yl)methoxy)quinoline-2-carboxylic acid] | 200
33 | CC(C)COc1cc(C(=O)O)nc2ccc(OCC34CCC(OCc5c(-c6c(Cl)cncc6Cl)noc5C5CC5)(CC3)CC4)cc12 [Example 355] | 18
34 | O=C(O)c1cc(OCC(CO)CCl)c2cc(OCC34CCC(OCc5c(-c6c(Cl)cncc6Cl)noc5C5CC5)(CC3)CC4)ccc2n1 (centres unmarked) [Example 356] | 110
35 | CC(C)Oc1nc(C(=O)O)cc2ccc(OCC34CCC(OCc5c(-c6c(Cl)cncc6Cl)noc5C5CC5)(CC3)CC4)cc12 [Example 357, 7-((4-((5-cyclopropyl-3-(3,5-dichloropyridin-4-yl)isoxazol-4-yl)methoxy)bicyclo[2.2.2]octan-1-yl)methoxy)-1-isopropoxyisoquinoline-3-carboxylic acid] | 13
36 | COc1cc(OCC23CCC(OCc4c(-c5c(Cl)cncc5Cl)noc4C4CC4)(CC2)CC3)ccc1C(=O)O [Example 358] | 52
37 | O=C(O)c1cc(OCC2COC2)c2cc(OCC34CCC(OCc5c(-c6c(Cl)cncc6Cl)noc5C5CC5)(CC3)CC4)ccc2n1 [Example 360] | 140
38 | O=C(O)c1cc(OC2COC2)c2cc(OCC34CCC(OCc5c(-c6c(Cl)cncc6Cl)noc5C5CC5)(CC3)CC4)ccc2n1 [Example 361] | 71
39 | O=C(O)c1ccc2c(c1)CN(CC13CCC(OCc4c(-c5c(Cl)cccc5Cl)noc4C4CC4)(CC1)CC3)CC2 [Example 362, 2-((4-((5-cyclopropyl-3-(2,6-dichlorophenyl)isoxazol-4-yl)methoxy)bicyclo[2.2.2]octan-1-yl)methyl)-1,2,3,4-tetrahydroisoquinoline-7-carboxylic acid] | 170
40 | Cn1cc(C(=O)O)c2ccc(C#CC34CCC(OCc5c(-c6c(Cl)cncc6Cl)noc5C5CC5)(CC3)CC4)nc21 [Example 363] | 260
41 | O=C(O)c1cc(C(F)(F)F)c2cc(C#CC34CCC(OCc5c(-c6c(Cl)cncc6Cl)noc5C5CC5)(CC3)CC4)ccc2n1 [Example 364] | 42
